Results from patent US9657013B2, “Inhibitors of hepatitis B virus covalently closed circular DNA formation and their method of use” (priority 2012, dated 2017).

Experiments:
HBV cccDNA = test: cccDNA inhibition assay (Southern blot of Hirt DNA); format: cell-based, hepatitis B virus; conditions: for inhibition at 1 µM / inhibition at 3 µM / inhibition at 10 µM / inhibition at 30 µM / inhibition at 0.3 µM: Hepatitis B virus, read-out: cccDNA inhibition % Reduction; for inhibition at 30 µM: Concentration 30 μM; for inhibition at 0.3 µM: Concentration 0.3 μM
Protocol: Cell cultures: HepG2.2.15 cells were maintained in DMEM/F12 medium (Mediatech, Manassas, Va.) supplemented with 10% fetal bovine serum, 100 U/ml penicillin and 100 μg/ml streptomycin, plus 400 μg/ml G418. Tetracycline inducible HBV producer cells, specifically HepDE19 and HepDES19 cells, were maintained in the same way as HepG2.2.15, but with the addition of 1 μg/ml tetracycline (Guo, H., D. Jiang, T. Zhou, A. Cuconati, T. M. Block, and J. T. Guo. 2007). To initiate HBV replication and cccDNA formation in HepDE19 and HepDES19 cells, tetracycline was withdrawn from the culture medium and the cells were cultured for the indicated time period.
Viral nucleic acid analysis: Total cellular RNA was extracted with TRIzol reagent (Invitrogen, Grand Island, N.Y.) by following manufacturer's directions. Ten microgram of total cellular RNA was resolved in 1.5% agarose gel containing 2.2 M formaldehyde and transferred onto Hybond-XL membrane (GE Healthcare, Piscataway, N.J.) in 20×SSC buffer. Intracellular hepadnaviral core DNA and cccDNA (Hirt DNA) were extracted as described previously (Guo, H., D. Jiang, T. Zhou, A. Cuconati, T. M. Block, and J. T. Guo. 2007. Guo, H., D. Jiang, T. Zhou, A. Cuconati, T. M. Block, and J. T. Guo. 2007. Guo, H., R. Mao, T. M. Block, and J. T. Guo. 2010. Guo, H., W. S. Mason, C. E. Aldrich, J. R. Saputelli, D. S. Miller, A. R. Jilbert, and J. E. Newbold. 2005). Half of the DNA samples recovered from one well of a 6-well-plate were resolved by electrophoresis into a 1.2% agarose gel and blotted onto Hybond-XL membrane. Membranes were probed with either an α-^32P-UTP (800 Ci/mmol, Perkin Elmer) labeled hepadnaviral minus (detecting DNA) or plus strand (detecting RNA) specific full-length riboprobe and exposed to a phosphorimager screen (Fuji Film, Tokyo, Japan). Hybridization signals were visualized by Typhoon FLA-7000 (GE Healthcare) and quantified with ImageQuantTL software (GE Healthcare). […]
Identification of compounds that inhibits cccDNA accumulation in HepDES19 cells: Compounds were tested on HepDES19 cells, which have a higher level of cccDNA production than HepDE19 cells (Guo, H., D. Jiang, T. Zhou, A. Cuconati, T. M. Block, and J. T. Guo. 2007). Briefly, after withdrawal of tetracycline, HepDES19 cells were left untreated, or were treated with compound at serial concentrations; tetracycline-free media was changed every other day with fresh compound supplementation. The concentration of DMSO in all experimental groups was normalized at 0.1%. The cells were harvested at day 12, viral RNA (top panel), core DNA (middle panel), and Hirt DNA (DP-rcDNA and cccDNA) (bottom panels) were extracted and analyzed by Northern blot and Southern blot, respectively. Shorter exposure of the Hirt DNA blot was used for the quantitative determination of DP-rcDNA signals. […] The reduction between DP-rcDNA and cccDNA was proportional compared with untreated control. […] Liu, C. P. Hu, and C. Chang. 2005. Guo, H., T. Zhou, D. Jiang, A. Cuconati, G. H. Xiao, T. M. Block, and J. T. Guo. 2007. Zhou, T., H. Guo, J. T. Guo, A. Cuconati, A. Mehta, and T. M. Block. 2006).

[1] = cytotoxicity assay (MTT, CC50); format: cell-based; conditions: human, HepDE19 cells
Protocol: (§1) Cell plates were then incubated with compound dilutions and controls as described above, and addition of 3-[4,5-dimethylthiazol-2-yl]-2,5-diphenyltetrazolium bromide (MTT, Sigma-Aldrich) was added to a final concentration of 0.5 mg/ml (Mosmann, T. 1983). Plates were again incubated at 37° C. for 4 hrs, after which 10% SDS/0.01N HCl was added to each well in a volume equal to the medium (100 μl), followed by overnight incubation. Absorbance was read in the Rainbow spectrophotometer (Tecan US Inc., Durham, N.C.) at 570 nm (reference wavelength of 630 nm), and analyzed with XLfit 4.0 as described above.

HepDE19 cells = test: cytotoxicity assay (MTT, CC50); format: cell-based
Protocol: as §1

## O=C(CN(c1cc(C(F)(F)F)ccc1Br)S(=O)(=O)c1ccccc1)NCc1ccncc1 [CCC-1002-2]
HBV cccDNA; Concentration 1 μM
  inhibition at 1 µM: 30%
HBV cccDNA; Concentration 3 μM
  inhibition at 3 µM: 30%
HBV cccDNA; Concentration 10 μM
  inhibition at 10 µM: 90%
[1]
  CC50: > 50 µM

## O=C(CN(c1cc(C(F)(F)F)ccc1F)S(=O)(=O)c1ccccc1)NCc1ccncc1 [CCC-1022-3]
HBV cccDNA; Concentration 1 μM
  inhibition at 1 µM: 20%
HBV cccDNA; Concentration 3 μM
  inhibition at 3 µM: 50%
HBV cccDNA; Concentration 10 μM
  inhibition at 10 µM: 75%
[1]
  CC50: > 50 µM

## O=C(CN(c1cc(C(F)(F)F)ccc1Cl)S(=O)(=O)c1ccc(F)cc1)NCc1ccncc1 [CCC-Lu25-20]
HBV cccDNA; Concentration 3 μM
  inhibition at 3 µM: 20%
HBV cccDNA; Concentration 10 μM
  inhibition at 10 µM: 60%
HBV cccDNA
  inhibition at 30 µM: 70%
[1]
  CC50: > 50 µM

## O=C(CN(c1cc(C(F)(F)F)ccc1Cl)S(=O)(=O)c1ccccc1)NCc1ccncc1 [CCC-Lu25-22]
HBV cccDNA; Concentration 3 μM, 3 µM
  cccDNA inhibition % Reduction: 40%
HBV cccDNA; Concentration 10 μM
  inhibition at 10 µM: 70%
HBV cccDNA
  inhibition at 30 µM: 70%
[1]
  CC50: > 50 µM

## O=C(CN(c1cc(C(F)(F)F)ccc1Cl)S(=O)(=O)c1ccc(Cl)cc1)NCc1ccncc1 [CCC-Lu25-32]
HBV cccDNA; Concentration 3 μM
  inhibition at 3 µM: 95%
HBV cccDNA; Concentration 10 μM
  inhibition at 10 µM: 95%
HBV cccDNA
  inhibition at 30 µM: 95%
[1]
  CC50: > 50 µM

## Cc1ccc(S(=O)(=O)N(CC(=O)NCc2ccncc2)c2cc(C(F)(F)F)ccc2Cl)cc1 [CCC-Lu25-38]
HBV cccDNA; Concentration 3 μM
  inhibition at 3 µM: 95%
HBV cccDNA; Concentration 10 μM
  inhibition at 10 µM: 95%
HBV cccDNA
  inhibition at 30 µM: 95%
[1]
  CC50: > 50 µM

## COc1ccc(S(=O)(=O)N(CC(=O)NCc2ccncc2)c2cc(C(F)(F)F)ccc2Cl)cc1 [CCC-Lu25-39]
HBV cccDNA; Concentration 3 μM
  inhibition at 3 µM: 95%
HBV cccDNA; Concentration 10 μM
  inhibition at 10 µM: 95%
HBV cccDNA
  inhibition at 30 µM: 95%
[1]
  CC50: 49.2 µM

## O=C(CN(c1cc(Cl)ccc1F)S(=O)(=O)c1ccccc1)NCc1ccncc1 [CCC-Lu25-41]
HBV cccDNA; Concentration 3 μM
  inhibition at 3 µM: 10%
HBV cccDNA; Concentration 10 μM
  inhibition at 10 µM: 30%
HBV cccDNA
  inhibition at 30 µM: 40%
[1]
  CC50: > 50 µM

## O=C(CN(c1cc(C(F)(F)F)ccc1Cl)S(=O)(=O)c1ccc(C(F)(F)F)cc1)NCc1ccncc1 [CCC-Lu25-42]
HBV cccDNA; Concentration 1 μM
  inhibition at 1 µM: 20%
HBV cccDNA; Concentration 3 μM
  inhibition at 3 µM: 90%
HBV cccDNA; Concentration 10 μM
  inhibition at 10 µM: 95%
[1]
  CC50: > 50 µM

## O=C(CN(c1cc(C(F)(F)F)ccc1Cl)S(=O)(=O)c1ccc(C(F)(F)F)cc1Cl)NCc1ccncc1 [CCC-Lu25-50]
HBV cccDNA; Concentration 3 μM
  inhibition at 3 µM: 95%
[1]
  CC50: 30.2 µM

## O=C(CN(c1cc(C(F)(F)F)ccc1Cl)S(=O)(=O)c1ccccc1)NCc1cccnc1 [CCC-Lu25-51]
HBV cccDNA; Concentration 3 μM
  inhibition at 3 µM: 80%
[1]
  CC50: > 50 µM

## O=C(CN(c1cc(C(F)(F)F)ccc1Cl)S(=O)(=O)c1ccccc1)NCc1cncnc1 [CCC-Lu25-52]
HBV cccDNA; Concentration 3 μM
  inhibition at 3 µM: 80%
[1]
  CC50: > 50 µM

## O=C(CN(c1cc(C(F)(F)F)ccc1Cl)S(=O)(=O)c1ccccc1)NCc1ccncn1 [CCC-Lu25-53]
HBV cccDNA; Concentration 3 μM
  inhibition at 3 µM: 70%
[1]
  CC50: > 50 µM

## O=C(CN(c1cc(C(F)(F)F)ccc1Cl)S(=O)(=O)c1ccccc1)N1CCc2cnccc2C1 [CCC-Lu25-54]
HBV cccDNA; Concentration 3 μM
  inhibition at 3 µM: 50%
[1]
  CC50: > 50 µM

## CC(C)(C)OC(=O)N1CCC(CNC(=O)CN(c2cc(C(F)(F)F)ccc2Cl)S(=O)(=O)c2ccccc2)CC1 [CCC-Lu25-55]
HBV cccDNA; Concentration 3 μM
  inhibition at 3 µM: 95%
[1]
  CC50: 19.1 µM

## CC(C)(C)CC(=O)NCCNC(=O)CN(c1cc(C(F)(F)F)ccc1F)S(=O)(=O)c1ccccc1 [CCC-Lu25-56]
HBV cccDNA; Concentration 3 μM
  inhibition at 3 µM: 70%
[1]
  CC50: 28.4 µM

## CN1CCC(CNC(=O)CN(c2cc(C(F)(F)F)ccc2Cl)S(=O)(=O)c2ccccc2)CC1 [CCC-Lu25-61-1]
HBV cccDNA; Concentration 3 μM
  inhibition at 3 µM: 30%
[1]
  CC50: > 50 µM

## C[N+]1(C)CCC(CNC(=O)CN(c2cc(C(F)(F)F)ccc2Cl)S(=O)(=O)c2ccccc2)CC1 [CCC-Lu25-61-2]
HBV cccDNA; Concentration 3 μM
  inhibition at 3 µM: 30%
[1]
  CC50: > 50 µM

## O=C(NCc1ccncc1)c1cc2ccccc2n1S(=O)(=O)c1ccccc1 [IHVR 13022-1]
HBV cccDNA; Concentration 1 μM
  inhibition at 1 µM: 50%
HBV cccDNA; Concentration 3 μM
  inhibition at 3 µM: 60%
HBV cccDNA; Concentration 10 μM
  inhibition at 10 µM: 65%
[1]
  CC50: > 50 µM

## Cc1cc2cc(NC(=O)c3ccc(S(=O)(=O)N(C)Cc4ccccc4)cc3)ccc2[nH]1 [IHVR-13003-1]
HBV cccDNA; Concentration 3 μM
  inhibition at 3 µM: 3%
HBV cccDNA; Concentration 10 μM
  inhibition at 10 µM: 5%
HBV cccDNA
  inhibition at 30 µM: 10%
[1]
  CC50: > 50 µM

## CN(Cc1ccccc1)S(=O)(=O)c1ccc(C(=O)Nc2ccc3ncsc3c2)cc1 [IHVR-13004]
HBV cccDNA
  inhibition at 0.3 µM: 0%
HBV cccDNA; Concentration 1 μM
  inhibition at 1 µM: 0%
HBV cccDNA; Concentration 3 μM
  inhibition at 3 µM: 50%
[1]
  CC50: 34.1 µM

## Cc1nc2ccc(NC(=O)c3ccc(S(=O)(=O)N(C)Cc4ccccc4)cc3)cc2s1 [IHVR-13006]
HBV cccDNA
  inhibition at 0.3 µM: 2%
HBV cccDNA; Concentration 1 μM
  inhibition at 1 µM: 50%
HBV cccDNA; Concentration 3 μM
  inhibition at 3 µM: 50%
[1]
  CC50: 5.9 µM

## CN(Cc1ccccc1)S(=O)(=O)c1ccc(C(=O)NCc2ccncc2)cc1 [IHVR-13009]
HBV cccDNA; Concentration 3 μM
  inhibition at 3 µM: 15%
HBV cccDNA; Concentration 10 μM
  inhibition at 10 µM: 15%
HBV cccDNA
  inhibition at 30 µM: 30%
[1]
  CC50: > 50 µM

## Cc1nc2cc(NC(=O)CN(c3cc(C(F)(F)F)ccc3Cl)S(=O)(=O)c3ccccc3)ccc2s1 [IHVR-13102]
HBV cccDNA; Concentration 3 μM
  inhibition at 3 µM: 30%
HBV cccDNA; Concentration 10 μM
  inhibition at 10 µM: 80%
HBV cccDNA
  inhibition at 30 µM: 30%
[1]
  CC50: > 50 µM

## O=C(CN(c1cc(C(F)(F)F)ccc1Cl)S(=O)(=O)c1ccccc1)NCc1ccncc1 [IHVR-13106]
HBV cccDNA; Concentration 1 μM, 1 µM
  cccDNA inhibition % Reduction: 0%
HBV cccDNA; Concentration 3 μM, 3 µM
  cccDNA inhibition % Reduction: 70%
HBV cccDNA; Concentration 10 μM, 10 µM
  cccDNA inhibition % Reduction: 80%
HepDE19 cells
  CC50: > 50 µM

## O=C(NCc1ccncc1)C1CCCN1S(=O)(=O)c1ccccc1 (stereo not drawn) [IHVR-13108]
HBV cccDNA; Concentration 1 μM
  inhibition at 1 µM: 10%
HBV cccDNA; Concentration 3 μM
  inhibition at 3 µM: 70%
HBV cccDNA; Concentration 10 μM
  inhibition at 10 µM: 50%
[1]
  CC50: > 50 µM

## CN1CCN(c2ccc(CNC(=O)CN(c3cc(C(F)(F)F)ccc3Cl)S(=O)(=O)c3ccccc3)cc2)CC1 [IHVR-29022]
HBV cccDNA; Concentration 3 μM
  inhibition at 3 µM: 30%
[1]
  CC50: 49.5 µM

## CN1CCN(c2cccc(CNC(=O)CN(c3cc(C(F)(F)F)ccc3Cl)S(=O)(=O)c3ccccc3)c2)CC1 [IHVR-29023]
HBV cccDNA; Concentration 3 μM
  inhibition at 3 µM: 30%
[1]
  CC50: 38.7 µM
